Data as given in ChEMBL document CHEMBL1155611, “Isolation and structure of the cytotoxin lyngbyabellin B and absolute configuration of lyngbyapeptin A from the marine cyanobacterium Lyngbya majuscula” (J Nat Prod, 2000).
In brackets after ≈: the same amount, converted by molar mass. Activity calls are given as the source filed them. No cut-off for these calls is given here.

What was measured:
KB = experiment: Cytotoxicity against human KB cells; type: functional, cell-based
LoVo = experiment: Cytotoxicity against human LoVo cells; type: functional, cell-based

Row | Structure (SMILES) | IC50 (KB) [µg/mL] | IC50 (LoVo) [µg/mL] | Activity (KB) | Activity (LoVo)
1 | CC(C)[C@@H]1NC(=O)CNC(=O)[C@@H]2CSC(=N2)[C@H](C(C)(C)O)OC(=O)C(C)(C)[C@H](CCCC(C)(Cl)Cl)OC(=O)c2csc1n2 [LYNGBYABELLIN B] | 0.1 (≈ 0.147 µM) | 0.83 (≈ 1.22 µM) | – | –
2 | CC[C@H](C)[C@@H](C(=O)N1CCC[C@H]1c1nccs1)N(C)C(=O)[C@H](CC(C)C)N(C)C(=O)[C@H](Cc1ccc(OC)cc1)N(C)C(=O)/C=C(\C)OC | – | – | inactive | inactive
